The source of these data is publication PMC12082738 (Journal of Enzyme Inhibition and Medicinal Chemistry, 2025).

Molecules are shown by their SMILES.

For one assay, the target named is S. cerevisiae α-GUS (Saccharomyces cerevisiae, UniProt P07265). Kind of assay: α-GUS inhibition assay. It is filed as biochemical.
The next assay concerns the target E. coli β-GUS (Escherichia coli, UniProt P05804). The assay can be described thus: β-GUS inhibition assay. It is filed as biochemical. Particulars: for Inhibition type, β-GUS: Lineweaver–Burk and Dixon plots, substrate 4-MUG.
Another assay addresses α-amylase. Particulars: read-out: IC50 α-amylase; cited from earlier work.
Assay [1] deals with protein tyrosine phosphatase-1B. Particulars: read-out: IC50 protein tyrosine phosphatase-1B; cited from earlier work.
The subject of a further assay is L6 myotubes. Particulars: cited from earlier work.
Assay [2] relates to human umbilical vein endothelial cells. Particulars: cited from earlier work.
For assay [3], the system named is platelet-activating factor acetyltransferase. Particulars: read-out: IC50 platelet-activating factor acetyltransferase; cited from earlier work.
Another assay deals with colorectal cancer cells. The conditions noted are these: 7.1 μM; cited from earlier work.
In another assay the test system is α-GUS. Particulars: read-out: IC50 against α-GUS; cited from earlier work.
A further assay relates to β-GUS. The conditions noted are these: read-out: IC50 against β-GUS; cited from earlier work.
Setting [4] is: substrate kinetics, preliminary kinetic assay.

S. cerevisiae α-GUS, sequence (P07265 whole entry): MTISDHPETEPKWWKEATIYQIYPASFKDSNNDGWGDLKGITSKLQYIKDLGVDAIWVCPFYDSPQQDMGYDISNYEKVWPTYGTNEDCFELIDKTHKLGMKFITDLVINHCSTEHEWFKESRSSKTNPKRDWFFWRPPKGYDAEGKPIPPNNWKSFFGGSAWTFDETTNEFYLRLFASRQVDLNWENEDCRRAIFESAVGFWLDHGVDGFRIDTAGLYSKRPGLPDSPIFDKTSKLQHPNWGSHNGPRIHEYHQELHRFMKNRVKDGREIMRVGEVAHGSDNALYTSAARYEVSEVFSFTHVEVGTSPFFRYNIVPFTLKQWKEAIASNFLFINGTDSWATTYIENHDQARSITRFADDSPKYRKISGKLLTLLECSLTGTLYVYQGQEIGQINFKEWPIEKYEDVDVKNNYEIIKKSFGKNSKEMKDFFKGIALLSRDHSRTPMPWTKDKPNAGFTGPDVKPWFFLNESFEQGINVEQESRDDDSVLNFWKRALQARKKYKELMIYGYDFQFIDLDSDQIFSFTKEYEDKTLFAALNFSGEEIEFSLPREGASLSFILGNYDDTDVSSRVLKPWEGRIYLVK
E. coli β-GUS, sequence (P05804 whole entry): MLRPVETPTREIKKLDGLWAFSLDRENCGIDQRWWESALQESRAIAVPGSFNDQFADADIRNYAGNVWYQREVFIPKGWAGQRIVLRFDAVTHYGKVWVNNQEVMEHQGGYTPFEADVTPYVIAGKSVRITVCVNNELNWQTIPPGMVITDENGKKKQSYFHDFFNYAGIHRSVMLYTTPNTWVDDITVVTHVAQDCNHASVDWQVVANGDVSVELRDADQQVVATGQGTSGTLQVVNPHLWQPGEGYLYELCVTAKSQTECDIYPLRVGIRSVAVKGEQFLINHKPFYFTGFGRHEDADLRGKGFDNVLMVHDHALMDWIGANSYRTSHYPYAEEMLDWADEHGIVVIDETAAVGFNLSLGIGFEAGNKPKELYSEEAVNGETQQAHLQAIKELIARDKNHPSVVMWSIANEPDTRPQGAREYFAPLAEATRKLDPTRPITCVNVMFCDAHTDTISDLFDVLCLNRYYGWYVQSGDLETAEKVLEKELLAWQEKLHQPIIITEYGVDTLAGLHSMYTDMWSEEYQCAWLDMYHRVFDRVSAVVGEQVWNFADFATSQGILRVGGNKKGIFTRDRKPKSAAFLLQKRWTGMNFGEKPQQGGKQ

Take `CC(C)=CCc1c(O)c(CC=C(C)C)c2occ(-c3ccc(O)cc3)c(=O)c2c1O` [DPG, 6,8-diprenylgenistein]: the values for the Ki at S. cerevisiae α-GUS and at E. coli β-GUS were 11.4 ± 2.2 µM and 2.62 ± 0.1 µM, respectively. In addition, the IC50 was 60.6 ± 10.3 µM against S. cerevisiae α-GUS (IC50 for inhibition of α-GUS, substrate PNPG 500 μM); 4.05 ± 0.16 µM against E. coli β-GUS; 14.8 µM on α-amylase; 2.3 to 28 µM in assay [1]; 19 µM in [3]. For the same molecule, the “Inhibition type, α-GUS” value at S. cerevisiae α-GUS (Lineweaver–Burk and Dixon plots, substrate PNPG) is “Un-competitive”. In addition, the “Inhibition type, β-GUS” value on E. coli β-GUS is “Non-competitive”; on E. coli β-GUS (listed as Diprenylgenistein), “competitive”. Further, the “concentration increasing basal and insulin-stimulated glucose uptake” value with L6 myotubes is > 10 µM. Further, the “concentration reversing high glucose induced injury” value in [2] was > 2.5 µM. The “effect on colorectal cancer cells” value in the assay with colorectal cancer cells was “trigger dual apoptosis and autophagy”.
As for `O=[N+]([O-])c1ccc(O[C@H]2O[C@H](CO)[C@@H](O)[C@H](O)[C@H]2O)cc1` [PNPG, 4-Nitrophenyl-α-D-glucopyranoside, reference compound], at S. cerevisiae α-GUS (setting [4]), the “Vmax for PNPG hydrolysis by α-GUS” value is listed as 1.05 ± 0.03 μmol/min/U.
Turning to `Cc1cc(=O)oc2cc(O[C@@H]3O[C@H](C(=O)O)[C@@H](O)[C@H](O)[C@H]3O)ccc12` [4-MUG, 4-Methylumbelliferyl-β-D-glucuronide, reference compound], the “Vmax for 4-MUG hydrolysis by β-GUS” value at E. coli β-GUS (setting [4]) worked out at 7.21 ± 0.10 µmol/min/mg.
For `O=c1c(-c2ccc(O)cc2)coc2cc(O)ccc12` [daidzein], the IC50 in the assay with α-GUS and in the assay on β-GUS was > 100 µM in each case.
The molecule `O=C(O)[C@@H](O)[C@H]1OC(=O)[C@H](O)[C@H]1O` [DSL, D-Saccharic acid 1,4-lactone, reference compound] showed an IC50 against E. coli β-GUS of 55 ± 7.6 µM.
